Data reported in patent US10045983B2, “Heteroaryl pyridone and aza-pyrodine compounds” (Genentech, Inc., priority 2011, dated 2018).
Like-named read-outs stand apart in the source and are kept apart here.

Test: CD69 Whole Blood Assay (CD69 Hu Blood FACS)
Format: cell-based, human
Settings: Lymphocyte, human whole blood, anti-IgM activated B lymphocytes, FACS, IC70
In short: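 Human whole blood stimulated by crosslinking surface IgM with goat F(ab′)2 anti-human IgM; inhibition of CD69 expression on B lymphocytes measured by flow cytometry.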

[1] = Table 1, read-out: CD69 Hu Blood FACS IC70
[2] = Table 2 (unit inferred), read-out: CD69 Hu Blood FACS (IC70)

Molecule C[C@H]1CN(C2COC2)CCN1c1ccc(Nc2cc(-c3ccnc(N4CCc5c(sc6c5CC(C)(C)C6)C4=O)c3CO)cn(C)c2=O)nc1 [Example 145, 6-{3′-Hydroxymethyl-1-methyl-5-[5-((S)-2-methyl-4-oxetan-3-yl-piperazin-1-yl)-pyridin-2-ylamino]-6-oxo-1,6-dihydro-[3,4′]bipyridinyl-2′-yl}-2,2-dimethyl-2,3,5,6-tetrahydro-1H,4H-8-thia-6-aza-cyclopenta[a]inden-7-one] has an IC70 [1] of 0.0147 µM.
For C[C@@H]1CN(C2COC2)CCN1c1ccc(Nc2cc(-c3ccnc(N4CCn5c(cc6c5CC(C)(C)C6)C4=O)c3CO)cn(C)c2=O)nc1 [Example 153, 2-{3′-Hydroxymethyl-1-methyl-5-[5-((R)-2-methyl-4-oxetan-3-yl-piperazin-1-yl)-pyridin-2-ylamino]-6-oxo-1,6-dihydro-[3,4′]bipyridinyl-2′-yl}-7,7-dimethyl-3,4,7,8-tetrahydro-2H,6H-cyclopenta[4,5]pyrrolo[1,2-a]pyrazin-1-one], the IC70 [1] was 0.0238 µM.
In the case of C[C@H]1CN(C2COC2)CCN1c1ccc(Nc2cc(-c3ccnc(N4CCn5c(cc6c5[C@@H]5CC[C@H]6C5)C4=O)c3CO)cn(C)c2=O)nc1 [Example 174, (1R,11S)-6-[3-(Hydroxymethyl)-4-[1-methyl-5-({5-[(2S)-2-methyl-4-(oxetan-3-yl)piperazin-1-yl]pyridin-2-yl}amino)-6-oxo-1,6-dihydropyridin-3-yl]pyridin-2-yl]-3,6-diazatetracyclo[9.2.1.0^2,10.0^3,8]tetradeca-2(10),8-dien-7-one], the IC70 [1] is reported as 0.101 µM.
Work on CN1CCn2nc(Nc3cc(-c4ccnc(-n5ncc6c7n(cc6c5=O)CCCC7)c4CO)cn(C)c3=O)cc2C1 [Example 202, 3-[3-(hydroxymethyl)-4-[1-methyl-5-[(5-methyl-6,7-dihydro-4H-pyrazolo[1,5-a]pyrazin-2-yl)amino]-6-oxo-3-pyridyl]-2-pyridyl]-7,8,9,10-tetrahydropyridazino[4,5-a]indolizin-4-one] yielded an IC70 [2] of 7.3 µM.
Work on Cn1cc(-c2cncc(N3CCc4c(sc5c4CC(C)(C)C5)C3=O)c2CO)cc(Nc2ccc(N3CCN(C4COC4)CC3)cn2)c1=O [Example 106] yielded an IC70 [1] of 0.0576 µM.
Work on Cc1cc(Nc2cc(-c3ccnc(N4CCn5c(cc6c5CC(C)(C)C6)C4=O)c3CO)cn(C)c2=O)n[nH]1 [Example 260, 3-[3-(hydroxymethyl)-4-[1-methyl-5-[(5-methyl-1H-pyrazol-3-yl)amino]-6-oxo-3-pyridyl]-2-pyridyl]-7,7-dimethyl-1,2,6,8-tetrahydrocyclopenta[3,4]pyrrolo[3,5-b]pyrazin-4-one] yielded an IC70 [2] of 0.0606 µM.
C[C@@H]1CN(c2ccc(Nc3cc(-c4ccnc(-n5ccn6c7c(cc6c5=O)CCCC7)c4CO)cn(C)c3=O)nc2)[C@@H](C)CN1C1COC1 [Example 160, 2-{5-[5-((2S, 5R)-2,5-Dimethyl-4-oxetan-3-yl-piperazin-1-yl)-pyridin-2-ylamino]-3′-hydroxymethyl-1-methyl-6-oxo-1,6-dihydro-[3,4′]bipyridinyl-2′-yl}-6,7,8,9-tetrahydro-2H-pyrazino[1,2-a]indol-1-one] showed an IC70 [1] of 0.0547 µM.
With Cc1cc(Nc2cc(-c3ccnc(-n4ccc5c(cc6n5CCCC6)c4=O)c3CO)cn(C)c2=O)nn1C [Example 246, 2-[4-[5-[(1,5-dimethylpyrazol-3-yl)amino]-1-methyl-6-oxo-3-pyridyl]-3-(hydroxymethyl)-2-pyridyl]-6,7,8,9-tetrahydropyrido[3,4-b]indolizin-1-one] the IC70 [2] was 1.7 µM.
For COc1ccc(Nc2cc(-c3ccnc(N4CCn5c(cc6c5CC(C)(C)C6)C4=O)c3CO)cn(C)c2=O)nn1 [Example 306, 3-[3-(hydroxymethyl)-4-[5-[(6-methoxypyridazin-3-yl)amino]-1-methyl-6-oxo-3-pyridyl]-2-pyridyl]-7,7-dimethyl-1,2,6,8-tetrahydrocyclopenta[3,4]pyrrolo[3,5-b]pyrazin-4-one], the IC70 [2] was 0.602 µM.
With Cn1cc(-c2cncc(N3CCc4c(cc5n4CCCC5)C3=O)c2CO)cc(Nc2ccc(N3CCN(C4COC4)CC3)cn2)c1=O [Example 112, 2-(4-(Hydroxymethyl)-5-(1-methyl-5-(5-(4-(oxetan-3-yl)piperazin-1-yl)pyridin-2-ylamino)-6-oxo-1,6-dihydropyridin-3-yl)pyridin-3-yl)-3,4,6,7,8,9-hexahydropyrido[3,4-b]indolizin-1(2H)-one] the IC70 [1] was 0.492 µM.
Cn1cc(-c2ccnc(N3CCn4c(cc5c4CCCC5)C3=O)c2CO)cc(Nc2ccc3[nH]cnc3n2)c1=O [Example 217, 2-[3-(hydroxymethyl)-4-[5-(1H-imidazo[4,5-b]pyridin-5-ylamino)-1-methyl-6-oxo-3-pyridyl]-2-pyridyl]-3,4,6,7,8,9-hexahydropyrazino[1,2-a]indol-1-one] showed an IC70 [2] of 2.9 µM.
With CCc1nnc(Nc2cc(-c3ccnc(N4CCn5c(cc6c5CC(C)(C)C6)C4=O)c3CO)cn(C)c2=O)s1 [Example 332, 3-[4-[5-[(5-ethyl-1,3,4-thiadiazol-2-yl)amino]-1-methyl-6-oxo-3-pyridyl]-3-(hydroxymethyl)-2-pyridyl]-7,7-dimethyl-1,2,6,8-tetrahydrocyclopenta[3,4]pyrrolo[3,5-b]pyrazin-4-one] the IC70 [2] was 0.0919 µM.
With CN1CCc2nc(Nc3cc(-c4ccnc(N5CCn6c(cc7c6CC(C)(C)C7)C5=O)c4CO)cn(C)c3=O)sc2C1 [Example 203, 3-[3-(hydroxymethyl)-4-[1-methyl-5-[(5-methyl-6,7-dihydro-4H-thiazolo[5,4-c]pyridin-2-yl)amino]-6-oxo-3-pyridyl]-2-pyridyl]-7,7-dimethyl-1,2,6,8-tetrahydrocyclopenta[3,4]pyrrolo[3,5-b]pyrazin-4-one] the IC70 [2] was 0.0605 µM.
Molecule C[C@H]1CN(C2COC2)CCN1c1ccc(Nc2cc(-c3ccnc(-n4ccc5c(cc6n5CCCC6)c4=O)c3CO)cn(C)c2=O)nc1 [Example 245, (S)-2-(3-(Hydroxymethyl)-4-(1-methyl-5-(5-(2-methyl-4-(oxetan-3-yl)piperazin-1-yl)pyridin-2-ylamino)-6-oxo-1,6-dihydropyridin-3-yl)pyridin-2-yl)-6,7,8,9-tetrahydropyrido[3,4-b]indolizin-1(2H)-one] has an IC70 [2] of 0.065 µM.
COC1CN(c2ccc(Nc3cc(-c4ccnc(N5CCn6c(cc7c6CC(C)(C)C7)C5=O)c4CO)cn(C)c3=O)nc2)C1 [Example 323, 3-[3-(hydroxymethyl)-4-[5-[[5-(3-methoxyazetidin-1-yl)-2-pyridyl]amino]-1-methyl-6-oxo-3-pyridyl]-2-pyridyl]-7,7-dimethyl-1,2,6,8-tetrahydrocyclopenta[3,4]pyrrolo[3,5-b]pyrazin-4-one] showed an IC70 [2] of 0.279 µM.
Cn1ccc(Nc2cc(-c3ccnc(N4CCn5c(cc6c5CC(C)(C)C6)C4=O)c3CO)cn(C)c2=O)n1 [Example 290, 3-[3-(hydroxymethyl)-4-[1-methyl-5-[(1-methylpyrazol-3-yl)amino]-6-oxo-3-pyridyl]-2-pyridyl]-7,7-dimethyl-1,2,6,8-tetrahydrocyclopenta[3,4]pyrrolo[3,5-b]pyrazin-4-one] gave an IC70 [2] of 0.113 µM.
In the case of Cn1cc(-c2ccnc(N3CCn4c(cc5c4CCCC5)C3=O)c2CO)cc(Nc2cnccn2)c1=O [Example 162, 2-[3′-Hydroxymethyl-1-methyl-6-oxo-5-(pyrazin-2-ylamino)-1,6-dihydro-[3,4′]bipyridinyl-2′-yl]-3,4,6,7,8,9-hexahydro-2H-pyrazino[1,2-a]indol-1-one], the IC70 [1] is reported as 0.434 µM.
Work on C[C@@H]1CN(c2ccc(Nc3cc(-c4ccnc(-n5ncc6c7c(sc6c5=O)CCCC7)c4CO)cn(C)c3=O)nc2)[C@@H](C)CN1C1COC1 [Example 159, 3-{5-[5-((2S, 5R)-2,5-Dimethyl-4-oxetan-3-yl-piperazin-1-yl)-pyridin-2-ylamino]-3′-hydroxymethyl-1-methyl-6-oxo-1,6-dihydro-[3,4′]bipyridinyl-2′-yl}-6,7,8,9-tetrahydro-3H-benzo[4,5]thieno[2,3-d]pyridazin-4-one] yielded an IC70 [1] of 0.082 µM.
For CN1CCc2nc(Nc3cc(-c4ccnc(-n5ncc6c7c(sc6c5=O)CCCC7)c4CO)cn(C)c3=O)sc2C1 [Example 216, 3-[3-(hydroxymethyl)-4-[1-methyl-5-[(5-methyl-6,7-dihydro-4H-thiazolo[5,4-c]pyridin-2-yl)amino]-6-oxo-3-pyridyl]-2-pyridyl]-6,7,8,9-tetrahydrobenzothiopheno[2,3-d]pyridazin-4-one], the IC70 [2] was 0.357 µM.
Molecule C[C@H]1c2cc(Nc3cc(-c4ccnc(N5CCn6c(cc7c6CC(C)(C)C7)C5=O)c4CO)cn(C)c3=O)nn2CCN1C [Example 319, (S)-2-(5-((4,5-dimethyl-4,5,6,7-tetrahydropyrazolo[1,5-a]pyrazin-2-yl)amino)-3′-(hydroxymethyl)-1-methyl-6-oxo-1,6-dihydro-[3,4′-bipyridin]-2′-yl)-7,7-dimethyl-2,3,4,6,7,8-hexahydro-1H-cyclopenta[4,5]pyrrolo[1,2-a]pyrazin-1-one] has an IC70 [2] of 0.0167 µM.
Molecule Cn1cnc(Nc2cc(-c3ccnc(N4CCn5c(cc6c5CC(C)(C)C6)C4=O)c3CO)cn(C)c2=O)c1 [Example 268, 3-[3-(hydroxymethyl)-4-[1-methyl-5-[(1-methylimidazol-4-yl)amino]-6-oxo-3-pyridyl]-2-pyridyl]-7,7-dimethyl-1,2,6,8-tetrahydrocyclopenta[3,4]pyrrolo[3,5-b]pyrazin-4-one] has an IC70 [2] of 0.212 µM.
With COC[C@@H](C)N1CCn2nc(Nc3cc(-c4ccnc(N5CCn6c(cc7c6CC(C)(C)C7)C5=O)c4CO)cn(C)c3=O)cc2C1 [Example 300, (R)-2-(3′-(hydroxymethyl)-5-((5-(1-methoxypropan-2-yl)-4,5,6,7-tetrahydropyrazolo[1,5-a]pyrazin-2-yl)amino)-1-methyl-6-oxo-1,6-dihydro-[3,4′-bipyridin]-2′-yl)-7,7-dimethyl-2,3,4,6,7,8-hexahydro-1H-cyclopenta[4,5]pyrrolo[1,2-a]pyrazin-1-one] the IC70 [2] was 0.024 µM.
CC[C@H]1CN(C2COC2)CCN1c1ccc(Nc2cc(-c3ccnc(-n4ncc5c6c(sc5c4=O)CCCC6)c3CO)cn(C)c2=O)nc1 [Example 175, 3-{5-[5-((S)-2-Ethyl-4-oxetan-3-yl-piperazin-1-yl)-pyridin-2-ylamino]-3′-hydroxymethyl-1-methyl-6-oxo-1,6-dihydro-[3,4′]bipyridinyl-2′-yl}-6,7,8,9-tetrahydro-3H-benzo[4,5]thieno[2,3-d]pyridazin-4-one] showed an IC70 [1] of 0.0466 µM.
